Measurements published in patent US9730940B2, “Purine inhibitors of human phosphatidylinositol 3-kinase delta” (priority 2012, dated 2017).

Target: PI3K-alpha (Homo sapiens (Human), UniProt P42336)
Experiment: HTRF PI3K biochemical assay, alpha isoform
Conditions: ratio PI3K-alpha IC50 value/PI3K-delta IC50 value
Excerpt: HTRF PI3K Biochemical Assay to Measure Intrinsic Potency of Compound Inhibitors
The PI3-Kinase biochemical assays were developed to measure the intrinsic potency and compound dependent inhibition of the alpha, beta, delta, and gamma PI3K isoform enzymes. This assay was developed and further optimized from a kit produced by Upstate (Millipore catalog #33-047) and has been configured for HTS and SAR screening. Briefly, this procedure exploits the exquisite specificity and high affinity binding of enzyme reaction substrate phosphatidyl(3,4,5)triphosphate (PIP3) to the GRP1 pleckstrin homology (PH) domain to generate the signal. In the absence of PIP3, an HTRF (Homogeneous Time-Resolved Fluorescence energy transfer) complex is formed consisting of europium (Eu)-labeled anti-GST, GST tagged GRP1-PH domain, biotin-PIP3 and streptavidin conjugated APC. The native PIP3 produced by PI3-Kinase activity disrupts in a competitive manner the biotin-PIP3 from the PH domain, resulting in the loss of energy transfer (HTRF complex) and a decrease in the signal. The format of this assay is the same for all 4 isoforms of PI3K; the differences lie in the concentration of enzyme used to achieve robust assay window. The alpha, beta, and delta assays are run at 0.5, 1, and 0.3 nM enzymes and the gamma assay is run at 5 nM enzyme. The ATP concentration is 100 uM in the alpha, beta, and delta assays and 50 uM ATP in the gamma assay. All reactions are run at 5 uM PIP2.
Compounds are serially diluted (3-fold in 100% DMSO) across a 384-well polypropylene source plated from column 3 to column 12 and column 13 to column 22, to yield 10 concentration dose response for each test compound. Columns 1, 2, 23 and 24 contain either only DMSO or pharmacological known control inhibitor.
The PI3-Kinase biochemical assay was optimized using the HTRF kit provided by Upstate (Millipore). The assay kit contains six reagents: 1) 4× Reaction Buffer; 2) native PIP2 (substrate); 3) Stop (EDTA); 4) Detection Mix A (Streptavidin-APC); 5) Detection Mix B (Eu-labeled Anti-GST plus GST-tagged PH-domain); 6) Detection Mix C.
PI3Kinase Reaction Buffer is prepared by dilution the stock 1:4 with de-ionized water. […] Enzyme addition and compound pre-incubation are initiated by the addition of 1.25 ul of PI3K (at twice its final concentration) in the 1× reaction buffer to all wells using a BioRaptor. Plates are incubated at room temperature for 15 minutes. Reactions are initiated by addition of 1.25 ul of 2× substrate solution (PIP2 and ATP in 1× reaction buffer) using BioRaptor. Plates are incubated in humidified chamber at room temperature for one hour. Reactions are quenched by addition of 0.625 uL of stop solution to all wells using the BioRaptor. The quenched reactions are then processed to detect product formation by adding 0.625 uL of Detection Solution to all wells using the BioRaptor (Detection mix C, Detection Mix A, and Detection Mix B combined together in an 18:1:1 ratio prepared 2 hours prior to use).
The loss of the HTRF signal is due to the displacement of biotinylated-PIP3 from the PH domain by the PI3K-dependent conversion of PIP2 to PIP3. This loss of signal is nonlinear with respect to both increasing product and time. This non-linear detection will impact accuracy of IC50 calculations; therefore, there is a need for a correction factor to obtain more accurate IC50 values. This correction is derived from a PIP3 standard curve run in a separate assay plate. All data were calculated using the ratio of acceptor (APC) to donor (Europium) fluorescence in each well of the assay plate. […] An IC50 was then calculated fitting the % inhibition data to the equation: % inhibition=min+(Max−min)/1+([inhibitor]/IC50)^n) where min is the % inhibition […], max is the signal in DMSO control, and n is the Hill slope.

Sequence of PI3K-alpha (P42336 whole entry, looked up, canonical isoform): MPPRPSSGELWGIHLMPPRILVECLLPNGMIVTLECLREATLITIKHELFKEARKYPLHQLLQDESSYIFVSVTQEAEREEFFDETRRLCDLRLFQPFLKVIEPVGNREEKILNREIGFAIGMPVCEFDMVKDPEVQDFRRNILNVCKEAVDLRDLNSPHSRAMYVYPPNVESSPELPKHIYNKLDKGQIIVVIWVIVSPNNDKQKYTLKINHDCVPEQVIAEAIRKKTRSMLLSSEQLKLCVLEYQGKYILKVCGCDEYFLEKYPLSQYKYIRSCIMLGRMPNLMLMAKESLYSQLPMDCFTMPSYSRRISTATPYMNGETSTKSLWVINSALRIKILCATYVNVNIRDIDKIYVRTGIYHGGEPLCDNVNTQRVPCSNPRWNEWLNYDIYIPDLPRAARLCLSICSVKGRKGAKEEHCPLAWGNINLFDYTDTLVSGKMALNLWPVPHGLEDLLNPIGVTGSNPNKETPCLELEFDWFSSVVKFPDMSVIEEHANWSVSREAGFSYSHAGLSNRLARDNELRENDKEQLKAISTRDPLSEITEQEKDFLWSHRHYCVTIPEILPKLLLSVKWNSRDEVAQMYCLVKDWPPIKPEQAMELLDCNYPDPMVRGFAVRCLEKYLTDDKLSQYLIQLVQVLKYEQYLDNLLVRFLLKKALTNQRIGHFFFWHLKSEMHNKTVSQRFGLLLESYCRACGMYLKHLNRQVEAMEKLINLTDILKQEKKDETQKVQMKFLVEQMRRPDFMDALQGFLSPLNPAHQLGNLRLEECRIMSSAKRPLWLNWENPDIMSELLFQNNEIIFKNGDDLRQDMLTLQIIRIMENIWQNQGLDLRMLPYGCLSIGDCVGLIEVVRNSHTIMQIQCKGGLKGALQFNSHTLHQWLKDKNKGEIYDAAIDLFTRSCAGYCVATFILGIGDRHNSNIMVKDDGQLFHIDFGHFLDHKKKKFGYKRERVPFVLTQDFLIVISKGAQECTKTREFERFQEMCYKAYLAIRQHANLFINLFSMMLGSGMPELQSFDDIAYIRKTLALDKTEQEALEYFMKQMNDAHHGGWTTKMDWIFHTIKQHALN
Sequence of PI3K-alpha (P27986 whole entry partner, looked up, canonical isoform): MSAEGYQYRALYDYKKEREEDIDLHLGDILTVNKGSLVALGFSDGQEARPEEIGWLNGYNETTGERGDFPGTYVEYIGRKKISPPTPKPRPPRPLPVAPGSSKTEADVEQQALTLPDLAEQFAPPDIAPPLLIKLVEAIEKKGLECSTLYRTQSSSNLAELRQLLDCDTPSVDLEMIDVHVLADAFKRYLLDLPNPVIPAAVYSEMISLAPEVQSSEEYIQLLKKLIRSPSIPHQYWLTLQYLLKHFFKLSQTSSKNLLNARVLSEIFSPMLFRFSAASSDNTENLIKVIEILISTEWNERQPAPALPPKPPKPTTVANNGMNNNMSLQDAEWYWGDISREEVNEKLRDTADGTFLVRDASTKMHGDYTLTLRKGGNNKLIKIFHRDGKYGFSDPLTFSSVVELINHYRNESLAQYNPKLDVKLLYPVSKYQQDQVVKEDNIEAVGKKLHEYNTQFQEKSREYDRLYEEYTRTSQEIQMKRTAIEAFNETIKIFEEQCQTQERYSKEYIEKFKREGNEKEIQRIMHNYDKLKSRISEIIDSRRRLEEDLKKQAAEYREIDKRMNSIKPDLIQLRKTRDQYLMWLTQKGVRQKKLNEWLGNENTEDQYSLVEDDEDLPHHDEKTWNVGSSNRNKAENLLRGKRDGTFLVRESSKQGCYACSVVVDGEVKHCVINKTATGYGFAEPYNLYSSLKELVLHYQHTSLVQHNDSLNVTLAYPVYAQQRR

| SMILES | Relative Selectivity versus PI3Kalpha |
| --- | --- |
| CCn1c(-c2cnc(C)nc2)nc2c(OC3CN(C(=O)C4CC4)CC3O)ncnc21 (single isomer, unassigned) [Compound 2-100, [(3R,4R) or (3S,4S)]-trans-1-(cyclopropylcarbonyl)-4-{[9-ethyl-8-(2-methylpyrimidin-5-yl)-9H-purin-6-yl]oxy}pyrrolidin-3-ol] | >10 |
| CCn1c(-c2cnc(C)nc2)nc2c(OC3CN(C(=O)C4CC4)CC3OC)ncnc21 (single isomer, unassigned) [Compound 2-115] | >10 |
| CCn1c(-c2cnc(C)nc2)nc2c(O[C@H]3CCN(C(=O)C4CCC4C)C3)ncnc21 (single isomer, unassigned) [Compound 2-117, 9-ethyl-6-({(3S)-1-[([(1R,2S) or (1R,2R) or (1S,2R) or (1S,2S)]-methylcyclobutyl)carbonyl]pyrrolidin-3-yl}oxy)-8-(2-methylpyrimidin-5-yl)-9H-purine] | >10 |
| CCn1c(-c2cnc(C)nc2)nc2c(O[C@H]3CCN(C(=O)C4CCC4C)C3)ncnc21 (single isomer, unassigned) [Compound 2-118, 9-ethyl-6-({(3S)-1-[([(1R,2S) or (1R,2R) or (1S,2R) or (1S,2S)]-methylcyclobutyl)carbonyl]pyrrolidin-3-yl}oxy)-8-(2-methylpyrimidin-5-yl)-9H-purine] | >10 |
| CCn1c(-c2cnc(C)nc2)nc2c(O[C@H]3CCN(C(=O)C4CCC4C)C3)ncnc21 (single isomer, unassigned) [Compound 2-119, 9-ethyl-6-({(3S)-1-[([(1R,2S) or (1R,2R) or (1S,2R) or (1S,2S)]-methy]cyclobutyl)carbonyl]pyrrolidin-3-yl}oxy)-8-(2-methylpyrimidin-5-yl)-9H-purine] | >10 |
| CCn1c(-c2cnc(C)nc2)nc2c(O[C@H]3CCN(C(=O)C4CCC4C)C3)ncnc21 (single isomer, unassigned) [Compound 2-120, 9-ethyl-6-({(3S)-1-[([(1R,2S) or (1R,2R) or (1S,2R) or (1S,2S)]-methylcyclobutyl)carbonyl]pyrrolidin-3-yl}oxy)-8-(2-methylpyrimidin-5-yl)-9H-purine] | >10 |
| CCn1c(-c2cnc(C)nc2)nc2c(O[C@H]3CCN(C(=O)C4CC4C(F)F)C3)ncnc21 (single isomer, unassigned) [Compound 2-124, 6-{[(3S)-{(1S,2S)- or (1R,2R)-[2-(difluoromethyl)cyclopropyl]carbonyl}pyrrolidin-3-yl]oxy}-9-ethyl-8-(2-methylpyrimidin-5-yl)-9H-purine] | >10 |
| CCn1c(-c2cnc(C)nc2)nc2c(O[C@H]3CCN(C(=O)C4CC4C(F)F)C3)ncnc21 (single isomer, unassigned) [Compound 2-125, 6-{[(3S)-1-{(1S,2S)- or (1R,2R)-[2-(difluoromethyl)cyclopropyl]carbonyl}pyrrolidin-3-yl]oxy}-9-ethyl-8-(2-methylpyrimidin-5-yl)-9H-purine] | >10 |
| CCn1c(-c2cnc(C)nc2)nc2c(O[C@H]3CCN(C(=O)C4CC4(C)C)C3)ncnc21 (single isomer, unassigned) [Compound 2-126, 6-({(3S)-1-[S- or R-(2,2-dimethylcyclopropyl)carbonyl]pyrrolidin-3-yl}oxy)-9-ethyl-8-(2-methylpyrimidin-5-yl)-9H-purine] | >10 |
| CCn1c(-c2cnc(C)nc2)nc2c(O[C@H]3CCN(C(=O)C4CC4(C)C)C3)ncnc21 (single isomer, unassigned) [Compound 2-127, 6-({(3S)-1-[S- or R-(2,2-dimethylcyclopropyl)carbonyl]pyrrolidin-3-yl}oxy)-9-ethyl-8-(2-methylpyrimidin-5-yl)-9H-purine] | >10 |
| CCn1c(-c2cnc(C)nc2)nc2c(O[C@H]3CCN(C(=O)C4CC4CO)C3)ncnc21 (single isomer, unassigned) [Compound 2-130, (1S,2S)- or (1R,2R)-{[(3S)-3-{[9-ethyl-8-(2-methylpyrimidin-5-yl)-9H-purin-6-yl]oxy}pyrrolidin-1-yl]carbonyl}cyclopropyl)methanol] | >10 |
| CCn1c(-c2cnc(C)nc2)nc2c(O[C@H]3CCN(C(=O)C4CC4CO)C3)ncnc21 (single isomer, unassigned) [Compound 2-131, (1S,2S)- or (1R,2R)-{[(3S)-3-{[9-ethyl-8-(2-methylpyrimidin-5-yl)-9H-purin-6-yl]oxy}pyrrolidin-1-yl]carbonyl}cyclopropyl)methanol] | >10 |
| CCn1c(-c2cnc(C)nc2)nc2c(O[C@H]3CCN(C(=O)C4CC4CF)C3)ncnc21 (single isomer, unassigned) [Compound 2-132, 9-ethyl-6-{[(3S)-1-{[(1S,2S)- or (1R,2R)-2-(fluoromethyl)cyclopropyl]carbonyl}pyrrolidin-3-yl]oxy}-8-(2-methylpyrimidin-5-yl)-9H-purine] | >10 |
| CCn1c(-c2cnc(C)nc2)nc2c(O[C@H]3CCN(C(=O)C4CC4CF)C3)ncnc21 (single isomer, unassigned) [Compound 2-133, 9-ethyl-6-{[(3S)-1-{[(1S,2S)- or (1R,2R)-2-(fluoromethyl)cyclopropyl]carbonyl}pyrrolidin-3-yl]oxy}-8-(2-methylpyrimidin-5-yl)-9H-purine] | >10 |
| CCn1c(-c2cnc(C)nc2)nc2c(O[C@H]3CCN(C(=O)C4CC4F)C3)ncnc21 (single isomer, unassigned) [Compound 2-134, 9-ethyl-6-(((3S)-1-[((1R,2R)- or (1S,2S)-2-fluorocyclopropyl)carbonyl]pyrrolidin-3-yl}oxy)-8-(2-methylpyrimidin-5-yl)-9H-purine] | >10 |
| CCn1c(-c2cnc(C)nc2)nc2c(O[C@H]3CCN(C(=O)C4CC4F)C3)ncnc21 (single isomer, unassigned) [Compound 2-135, 9-ethyl-6-({(3S)-1-[((1R,2R)- or (1S,2S)-2-fluorocyclopropyl)carbonyl]pyrrolidin-3-yl}oxy)-8-(2-methylpyrimidin-5-yl)-9H-purine] | >10 |
| CCn1c(-c2cnc(C)nc2)nc2c(OC3CN(C(=O)C4CC4)CC3F)ncnc21 (single isomer, unassigned) [Compound 2-137, 6-{[1-(cyclopropylcarbonyl)-(3S,4S)- or (3R,4R)-4-fluoropyrrolidin-3-yl]oxy}-9-ethyl-8-(2-methylpyrimidin-5-yl)-9H-purine] | >10 |
| CCn1c(-c2cnc(C)nc2)nc2c(OC3CN(C(=O)C4CC4)CC3F)ncnc21 (single isomer, unassigned) [Compound 2-138, 6-{[1-(cyclopropylcarbonyl)-(3S,4S)- or (3R,4R)-4-fluoropyrrolidin-3-yl]oxy}-9-ethyl-8-(2-methylpyrimidin-5-yl)-9H-purine] | >10 |
| CCC1CN(C(=O)C2CC2)C[C@H]1Oc1ncnc2c1nc(-c1cnc(C)nc1)n2CC (single isomer, unassigned) [Compound 3-47, [3R,4S or 3S,4R]-6-{[1-(cyclopropylcarbonyl)-4-ethylpyrrolidin-3-yl]oxy}-9-ethyl-8-(2-methylpyrimidin-5-yl)-9H-purine] | >10 |
| CCn1c(-c2cnc(C)nc2)nc2c(OC3CN(C(=O)C4CC4)CC3C)ncnc21 (single isomer, unassigned) [Compound 3-65, [(3S,4R) or (3R,4S)]6-{[1-(cyclopropylcarbonyl)-4-methylpyrrolidin-3-yl]oxy}-9-ethyl-8-(2-methylpyrimidin-5-yl)-9H-purine] | >10 |
